Measurements as given in US20140179681A1, “METHODS AND COMPOSITIONS OF TARGETED DRUG DEVELOPMENT” (priority 2010, published 2014).
Counter-ions that a name gives are not always drawn. Like-named read-outs stand apart in the source and are kept apart here.

Columns and labels:
[1] = system: epithelial carcinoma A431 cell line; test: MTT Cell Proliferation Assay, A431 cells; format: cell-based; conditions: for MTT Follow-up: ratio in parentheses: ratio MDBK/A431
Outline: (§1)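 Each concentration ran in quadruplicate across duplicate plates, with compounds serially diluted in DMSO and delivered at 0.5% DMSO in 0.5% FBS medium for 3 days.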

MDBK line = test: MTT Cell Proliferation Assay, MDBK cells; format: cell-based, bovine
Outline: as §1

EGFR = target: T1, EGFR (Homo sapiens, UniProt P00533); test: EGFR in-cell Western (ICW) screening protocol (EGFR inhibition assay); format: cell-based; design: ICW 1 / ICW 2 / ICW Avg: unit not given here; conditions: for ICW Avg / ICW 1 / ICW 2: ICW assay; for ICW Avg: average of runs 1 and 2; for ICW 1: run 1; for ICW 2: run 2; for ICW assay: Table 10
T1 construct: host or cells: A431
T1 sequence (P00533 25-1210): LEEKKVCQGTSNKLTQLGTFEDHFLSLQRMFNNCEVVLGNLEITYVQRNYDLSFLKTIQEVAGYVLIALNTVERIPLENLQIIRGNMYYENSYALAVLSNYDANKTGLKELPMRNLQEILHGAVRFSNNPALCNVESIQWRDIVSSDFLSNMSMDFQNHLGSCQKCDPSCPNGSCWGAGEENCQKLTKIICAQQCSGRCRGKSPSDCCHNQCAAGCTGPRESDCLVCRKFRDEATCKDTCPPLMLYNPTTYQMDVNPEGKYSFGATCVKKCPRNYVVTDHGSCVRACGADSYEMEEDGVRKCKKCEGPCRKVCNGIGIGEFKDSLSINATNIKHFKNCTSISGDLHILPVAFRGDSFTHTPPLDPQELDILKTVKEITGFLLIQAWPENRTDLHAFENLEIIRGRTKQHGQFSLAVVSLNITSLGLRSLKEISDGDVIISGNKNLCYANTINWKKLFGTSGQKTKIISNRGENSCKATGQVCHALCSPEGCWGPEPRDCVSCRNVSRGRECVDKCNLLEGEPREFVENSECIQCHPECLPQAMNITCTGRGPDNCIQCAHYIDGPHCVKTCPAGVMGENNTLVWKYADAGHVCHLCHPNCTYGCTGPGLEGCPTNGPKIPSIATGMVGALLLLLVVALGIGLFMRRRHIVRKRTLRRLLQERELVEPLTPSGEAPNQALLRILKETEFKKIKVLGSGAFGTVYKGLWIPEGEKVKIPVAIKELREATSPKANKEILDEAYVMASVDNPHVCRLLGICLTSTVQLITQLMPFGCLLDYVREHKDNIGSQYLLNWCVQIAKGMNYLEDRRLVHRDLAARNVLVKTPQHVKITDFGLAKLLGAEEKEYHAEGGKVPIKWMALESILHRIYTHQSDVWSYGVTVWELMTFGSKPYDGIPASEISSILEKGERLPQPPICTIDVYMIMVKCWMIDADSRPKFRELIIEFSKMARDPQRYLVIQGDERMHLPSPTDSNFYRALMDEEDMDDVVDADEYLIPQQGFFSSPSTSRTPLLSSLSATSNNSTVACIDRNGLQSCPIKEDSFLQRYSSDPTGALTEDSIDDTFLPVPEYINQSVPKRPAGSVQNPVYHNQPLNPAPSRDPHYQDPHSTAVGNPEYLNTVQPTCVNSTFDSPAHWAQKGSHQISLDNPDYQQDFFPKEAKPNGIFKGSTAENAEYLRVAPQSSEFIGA
Outline: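 In-cell Western read-out: fixed A431 cells were co-stained for total EGFR and phospho-EGFR (Tyr1173; some runs Tyr1045). Before fixation, cells were serum-starved for 2 h, exposed to compound for 4 h, then given EGF for 10 min, usually at 10 ng/ml final (6.6 or 12.5 ng/ml in some runs).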

[2] = Homo sapiens, A-431, A431 cells, first value of cell, read-out: MTT Assay IC50(A431/MDBK): A431
[3] = Bos taurus, MDBK, MDBK cells, second value of cell, read-out: MTT Assay IC50(A431/MDBK): MDBK
[4] = Homo sapiens, A-431, first value of 'a/b (c)', taken as A431 cells, read-out: MTT Screen, first value of cell
[5] = Bos taurus, MDBK, second value of 'a/b (c)', taken as MDBK cells, read-out: MTT Screen, second value of cell
[6] = Homo sapiens, A-431, 72 h, Table 10, first of x/y(ratio): A431, three day treatment, unit not printed (doses in μM), read-out: MTT assay (first value)
[7] = Bos taurus, MDBK, 72 h, Table 10, second of x/y(ratio): MDBK, three day treatment, unit not printed (doses in μM), read-out: MTT assay (second value)
[8] = % Inhibition of EGF dependent EGFR phosphorylation in A431 cells, compound 125 μM in assay
[9] = first value of 'a/b (c)', taken as A431 cells, read-out: MTT Screen, first value of cell
[10] = Homo sapiens, A-431, follow-up MTT, A431 cells, first value, read-out: MTT Follow-up: A431
[11] = Bos taurus, MDBK, follow-up MTT, MDBK cells, second value, read-out: MTT Follow-up: MDBK

Cc1nc(Nc2ncc3c(n2)CC(c2ccco2)CC3=O)nc2ccccc12 (stereo not shown) [11679 + TFA]
IC50 [1, 2]: 12.6 µM
MTT Assay IC50(A431/MDBK): ratio in parentheses ([1]; ratio MDBK IC50 / A431 IC50 (selectivity)): 0.70
IC50 (MDBK line; [3]): 8.73 µM
ICW Avg (EGFR): 25.83
ICW 1 (EGFR): 31.02
ICW 2 (EGFR): 20.64

CCN(CC)S(=O)(=O)c1ccc(NC(=S)NC(=O)CC(C)C)cc1 [AD4-12049]
IC50 [1, 4]: 32.3 µM
IC50 (MDBK line; [5]): 12 µM
ICW Screen (ICW Inhibition) (EGFR): 36.966

CCC(C)c1ccc(NC(=S)Nc2ccc(S(=O)(=O)Nc3ccccc3)cc2)cc1 (stereo not shown) [AD4-12798]
IC50 [1, 6]: 4.74 µM
IC50 (MDBK line; [7]): 5.69 µM
ICW assay (EGFR; [8]): 49.531

COc1ccc(OCC(=O)NC(=S)Nc2ccc(S(=O)(=O)Nc3cc(C)cc(C)c3)cc2)cc1 [AD4-12165]
IC50 [1, 9]: 63.6 µM
IC50 (MDBK line; [5]): 12 µM
ICW Screen (ICW Inhibition) (EGFR): 36.632

COc1cc(NS(=O)(=O)c2ccc(NC(=S)NC(=O)/C=C/c3ccccc3)cc2)nc(OC)n1 [AD4-12262]
IC50 [1, 9]: 42.9 µM
IC50 (MDBK line; second value of 'a/b (c)', taken as MDBK cells, read-out: MTT Screen, second value of cell): 43.4 µM
ICW Screen (ICW Inhibition) (EGFR): 40.146

CC1CCc2cc(F)ccc2N1S(=O)(=O)c1ccc(NC(=S)Nc2ccc(F)c(Cl)c2)cc1 (stereo not shown) [AD4-12836]
IC50 [1, 6]: 9.32 µM
IC50 (MDBK line; [7]): 8.43 µM
ICW assay (EGFR; [8]): 46.1658

O=C(NC(=S)Nc1ccc(S(=O)(=O)N2CCCCC2)cc1)C1CCC1 [AD4-11421]
IC50 [1, 4]: 41.5 µM
IC50 (MDBK line; [5]): 43.5 µM
ICW Screen (ICW Inhibition) (EGFR): 37.181

Cc1ccc(NS(=O)(=O)c2ccc(NC(=S)NC(=O)C3CCC3)cc2)cc1C [AD4-10676]
IC50 [1, 9]: 18.6 µM
IC50 (MDBK line; [5]): 8.84 µM
ICW Screen (ICW Inhibition) (EGFR): 59.637

Cc1ccc(NS(=O)(=O)c2ccc(NC(=S)NC(=O)C(C)(C)C)cc2)c(C)c1 [AD4-11968]
IC50 [1, 4]: 6.49 µM
IC50 (MDBK line; [5]): 6.29 µM
ICW Screen (ICW Inhibition) (EGFR): 45.095

CCc1cc2c(CN3CCN(C(c4ccccc4)c4ccccc4)CC3)cc(=O)oc2cc1O [AD4-10619]
IC50 ([1]; Homo sapiens, A-431, Table 11, first of x/y(ratio): A431, unit inferred, read-out: MTT Follow-up (first value)): 2.97 µM
MTT Screen, % @ […] ([1]; Table 11, @ […], cell line not stated): 87% @ 2.6 μM
IC50 (MDBK line; Bos taurus, MDBK, Table 11, second of x/y(ratio): MDBK, unit inferred, read-out: MTT Follow-up (second value)): 3.06 µM
ICW Screen (EGFR; Table 11, % Inhibition of EGF dependent EGFR phosphorylation in A431 cells, compound 125 μM in assay): −44.55

COc1ccccc1/C=C/C(=O)NC(=S)Nc1ccc(S(=O)(=O)N2CCN(C)CC2)cc1 [AD4-12265]
IC50 [1, 4]: 38.1 µM
IC50 (MDBK line; [5]): 35.1 µM
ICW Screen (ICW Inhibition) (EGFR): 31.19

COc1cc(NS(=O)(=O)c2ccc(NC(=S)NC(=O)/C=C/c3cccs3)cc2)nc(OC)n1 [AD4-11881]
IC50 [1, 4]: 63.3 µM
IC50 (MDBK line; [5]): 46.5 µM
ICW Screen (ICW Inhibition) (EGFR): 34.08

CCOc1cccc2c(C)nc(Nc3nc(CSc4ccc(C)cc4)cc(=O)[nH]3)nc12 [compound 11755]
MTT Assay IC50(A431/MDBK): A431 ([1]; A431 cells, first value of cell): non-convergent
IC50 [1, 10]: 14.1 µM
MTT Follow-up: ratio in parentheses [1]: 0.23
IC50 (MDBK line; [11]): 3.24 µM
ICW Avg (EGFR): 37.09
ICW 1 (EGFR): 40.96
ICW 2 (EGFR): 33.21

COc1cccc2c(C)nc(Nc3nc(-c4ccccc4)cc(=O)[nH]3)nc12 [compound 11741]
IC50 [1, 2]: 2.44 µM
IC50 [1, 10]: 51.5 µM
MTT Follow-up: ratio in parentheses [1]: 1.01
IC50 (MDBK line; [3]): 2.44 µM
IC50 (MDBK line; [11]): 51.9 µM
ICW Avg (EGFR): 68.05
ICW 1 (EGFR): 66.55
ICW 2 (EGFR): 69.55

CC1CCc2cc(F)ccc2N1S(=O)(=O)c1ccc(NC(=S)Nc2cccc(F)c2)cc1 (stereo not shown) [AD4-12837]
IC50 [1, 6]: 6.28 µM
IC50 (MDBK line; [7]): 5.68 µM
ICW assay (EGFR; [8]): 35.1542

CC(=O)c1cccc(NC(=S)Nc2ccc(S(=O)(=O)Nc3c(C)cc(C)cc3C)cc2)c1 [AD4-12391]
IC50 [1, 6]: 11.1 µM
IC50 (MDBK line; [7]): 9.09 µM
ICW assay (EGFR; [8]): 37.4191
